Tests used:
[1] = test system: spontaneous locomotor activity (SLMA); test: Spontaneous locomotor activity (SLMA) in rats; format: in vivo, Male Sprague-Dawley rats; conditions: rat; for SLMA, Mean centimeters traveled in 1 hour±SEM: 60-minute absorption period, recorded 1 hour, vehicle 4066±297
From the text: Effects of 7-[4-(4-naphthalen-1-yl-piperazin-1-yl)-butoxy]-3,4-dihydro-1H-[1,8]naphthyridin-2-one on spontaneous locomotors activity (SLMA) was investigated in an in vivo animal model, which is predictive of antipsychotic efficacy.
Method: Male Sprague-Dawley rats were used in studies where SLMA was quantified using an activity monitor in a sound-attenuated chamber. Rats were randomly assigned to various groups (including a vehicle control group). 7-[4-(4naphthalen-1-yl-piperazin-1-yl)-butoxy]-3,4-dihydro-1H-[1,8]naphthyridin-2-one at doses of 0.1 mg/kg, 0.3 mg/kg, 1 mg/kg, 3 mg/kg, and 10 mg/kg, or vehicle were administered orally. Following a 60-minute absorption period, each rat was placed into the test chamber, and SLMA was recorded for a 1-hour time-period. SLMA is expressed as centimeters traveled. Statistical analysis was performed using a one-way ANOVA followed by a post hoc Dunnett's test.

dopamine D2 receptor = dopamine D2 receptor (Homo sapiens, UniProt P14416); conditions: background statement, compound of WO2005/019215; cited from earlier work
D2 receptors = D2 receptors (Homo sapiens, UniProt P14416); conditions: background statement, compound of WO2005/019215; cited from earlier work
[2] = Solid-state stability study, open dish; format: physicochemical; conditions: for solid-state stability (degradation): open dish, 6 month
[3] = Conversion of crystalline form on standing; format: physicochemical; conditions: ambient temperatures

Sequence of D2 receptors (P14416 whole entry, species assumed): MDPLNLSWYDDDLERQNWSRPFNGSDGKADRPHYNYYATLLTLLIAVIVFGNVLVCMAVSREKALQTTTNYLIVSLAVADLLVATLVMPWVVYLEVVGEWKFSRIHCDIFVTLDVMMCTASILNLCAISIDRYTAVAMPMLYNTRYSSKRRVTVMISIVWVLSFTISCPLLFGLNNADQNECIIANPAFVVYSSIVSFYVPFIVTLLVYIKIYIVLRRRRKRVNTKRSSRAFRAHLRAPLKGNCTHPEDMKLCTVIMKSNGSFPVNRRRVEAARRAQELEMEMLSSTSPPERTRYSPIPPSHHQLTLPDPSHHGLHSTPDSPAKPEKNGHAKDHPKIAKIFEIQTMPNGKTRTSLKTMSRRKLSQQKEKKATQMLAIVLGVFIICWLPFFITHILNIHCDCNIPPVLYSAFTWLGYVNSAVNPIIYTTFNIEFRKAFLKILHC
Sequence of dopamine D2 receptor (P14416 whole entry, species assumed): as above

In the case of O=C1CCc2ccc(OCCCCN3CCN(c4cccc5ccccc45)CC3)nc2N1 [7-[4-(4-naphthalen-1-yl-piperazin-1-yl)-butoxy]-3,4-dihydro-1H-[1,8]naphthyridin-2-one], the “SLMA, Mean centimeters traveled in 1 hour±SEM” value (shortened to “SLMA … in 1 hour±SEM”) ([1]; 0.1 mg/kg orally, not statistically different from vehicle) is reported as 3998±133 centimeters, the “SLMA … in 1 hour±SEM” value ([1]; 0.3 mg/kg orally, p<0.05 vs vehicle) is reported as 2510±185 centimeters and the “SLMA … in 1 hour±SEM” value ([1]; 1 mg/kg orally, p<0.05 vs vehicle) is reported as 1977±173 centimeters. For the same compound, the “SLMA … in 1 hour±SEM” value ([1]; 3 mg/kg orally, p<0.05 vs vehicle) was 1742±206 centimeters, the “SLMA … in 1 hour±SEM” value ([1]; 10 mg/kg orally, p<0.05 vs vehicle) was 1068±208 centimeters and the “effect on SLMA (in words)” value ([1]; oral, 0.1-10 mg/kg) was “dose-dependent reduction”. For the same compound, the “minimum effective dose (reduction of SLMA)” value ([1]; oral, estimated) was 0.3 mg/kg, the “binding to the dopamine D2 receptor (in words)” value (dopamine D2 receptor) was “binds” and the “activity at D2 receptors (in words)” value (D2 receptors) was “partial agonist”.

With O=C1CCc2ccc(OCCCCN3CCN(c4cccc5ccccc45)CC3)nc2N1.O=P(O)(O)O [Form A, 7-[4-(4-naphthalen-1-yl-piperazin-1-yl)-butoxy]-3,4-dihydro-1H-[1,8]naphthyridin-2-one mono-phosphate] the “solid-state stability (degradation)” value ([2]; 25° C./60% relative humidity) was “little or no degradation”, the “solid-state stability (degradation)” value ([2]; 30° C./70% relative humidity) was “little or no degradation” and the “solid-state stability (degradation)” value ([2]; 40° C./75% relative humidity) was “little or no degradation”. For the same compound, the “relative stability of crystalline forms” value ([2]; Form A compared with Form B) was “more stable than Form B”.

For O=C1CCc2ccc(OCCCCN3CCN(c4cccc5ccccc45)CC3)nc2N1.O=P(O)(O)O [Form B, 7-[4-(4-naphthalen-1-yl-piperazin-1-yl)-butoxy]-3,4-dihydro-1H-[1,8]naphthyridin-2-one mono-phosphate], the “form conversion on standing” value [3] was “convert to Form A”.
